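Growth conditions: 96-well plates. Treatment: test compound, 48 hours, 5 concentrations. Analysis: linear interpolation between bracketing concentrations; unreached endpoints set to highest concentration. Here, GI50 denotes the concentration required for 50% inhibition of growth.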 Active and inactive are the calls of the source. No stated cut-off is given here; in the data, active = GI50 up to about 1.1 µM and inactive = higher.
What was measured:
Test in all cases: NCI-60 cell line screen, 48 h
[1] = system: Malme-3M
[2] = system: M19-MEL
[3] = system: SNB-75
[4] = system: SK-MEL-2
[5] = system: RPMI-8226
[6] = system: RXF 631
[7] = system: SF-539
[8] = system: DLD-1
[9] = system: OVCAR-3
[10] = system: COLO 205
[11] = system: HCC 2998
[12] = system: DMS-273
[13] = system: RXF 393
[14] = system: MOLT-4
[15] = system: XF498
[16] = system: A549
[17] = system: K562
[18] = system: SW-620
[19] = system: ACHN
[20] = system: HOP-62
[21] = system: SK-MEL-5
[22] = system: KM12
[23] = system: NCI-H460
[24] = system: CCRF-CEM
[25] = system: A498
[26] = system: HT-29
[27] = system: NCI-H226
[28] = system: OVCAR-8
[29] = system: HOP-92
[30] = system: OVCAR-4
[31] = system: SF-268
[32] = system: UACC-62
[33] = system: U-251
[34] = system: UACC-257
[35] = system: SN12C
[36] = system: HCT-116
[37] = system: DMS-114
[38] = system: LXFL 529
[39] = system: 786-0
[40] = system: SF-295
[41] = system: SNB-19
[42] = system: KM-20L2
[43] = system: OVCAR-5
[44] = system: SNB-78
[45] = system: SK-MEL-28
[46] = system: HCT-15
[47] = system: UO-31
[48] = system: IGROV-1
[49] = system: TK-10
[50] = system: LOX IMVI
[51] = system: NCI-H522
[52] = system: M14
[53] = system: SK-OV-3
[54] = system: CAKI-1
[55] = system: NCI-H23
[56] = system: HL-60
[57] = system: HOP-18
[58] = system: SR
[59] = system: EKVX

SMILES: O=C(CCc1nnc2s/c(=C\c3ccc([N+](=O)[O-])cc3)c(=O)n12)Nc1ccc(Cl)c(Cl)c1
- GI50 [1]: 29.4 µM (inactive)
- GI50 [2]: 31.6 µM (inactive)
- GI50 [3]: 10.4 µM (inactive)
- GI50 [4]: 27.7 µM (inactive)
- GI50 [5]: 20.6 µM (inactive)
- GI50 [6]: 49.9 µM (inactive)
- GI50 [7]: 17.9 µM (inactive)
- GI50 [8]: 19.3 µM (inactive)
- GI50 [9]: 13.1 µM (inactive)
- GI50 [10]: 28.1 µM (inactive)
- GI50 [11]: 22.3 µM (inactive)
- GI50 [12]: 24.5 µM (inactive)
- GI50 [13]: 18.2 µM (inactive)
- GI50 [14]: 25.1 µM (inactive)
- GI50 [15]: 27.6 µM (inactive)
- GI50 [16]: 40.7 µM (inactive)
- GI50 [17]: 20.3 µM (inactive)
- GI50 [18]: 25.2 µM (inactive)
- GI50 [19]: 36.4 µM (inactive)
- GI50 [20]: 20.3 µM (inactive)
- GI50 [21]: 58.1 µM (inactive)
- GI50 [22]: 16 µM (inactive)
- GI50 [23]: 46.1 µM (inactive)
- GI50 [24]: 20.2 µM (inactive)
- GI50 [25]: 85.3 µM (inactive)
- GI50 [26]: 30.3 µM (inactive)
- GI50 [27]: 14.4 µM (inactive)
- GI50 [28]: 20.1 µM (inactive)
- GI50 [29]: 38.6 µM (inactive)
- GI50 [30]: 18.6 µM (inactive)
- GI50 [31]: 18.5 µM (inactive)
- GI50 [32]: 26.5 µM (inactive)
- GI50 [33]: 16.6 µM (inactive)
- GI50 [34]: 85.1 µM (inactive)
- GI50 [35]: 25.2 µM (inactive)
- GI50 [36]: 32.1 µM (inactive)
- GI50 [37]: 17.3 µM (inactive)
- GI50 [38]: 13.4 µM (inactive)
- GI50 [39]: 17.9 µM (inactive)
- GI50 [40]: 25.1 µM (inactive)
- GI50 [41]: 72.9 µM (inactive)
- GI50 [42]: 47.9 µM (inactive)
- GI50 [43]: 36.2 µM (inactive)
- GI50 [44]: 25.4 µM (inactive)
- GI50 [45]: 21.8 µM (inactive)
- GI50 [46]: 24.7 µM
- GI50 [47]: 41.5 µM (inactive)
- GI50 [48]: 24.7 µM (inactive)
- GI50 [49]: 34 µM (inactive)
- GI50 [50]: 15.3 µM (inactive)
- GI50 [51]: 17.3 µM (inactive)
- GI50 [52]: 21.6 µM (inactive)
- GI50 [53]: 38.5 µM (inactive)
- GI50 [54]: 41.9 µM (inactive)
- GI50 [55]: 25.8 µM (inactive)
- GI50 [56]: 17.3 µM (inactive)

SMILES: CC(C)(C)OC(=O)N1N=NC2C1C1CC(OCc3ccccc3)(OCc3ccccc3)C2O1 (stereo unspecified)
- GI50 [1]: 65.8 µM (inactive)
- GI50 [2]: 37.5 µM (inactive)
- GI50 [3]: 28.1 µM (inactive)
- GI50 [4]: 49.2 µM (inactive)
- GI50 [5]: 14.1 µM (inactive)
- GI50 [6]: > 100 µM (inactive)
- GI50 [7]: > 10 µM (inactive)
- GI50 [57]: 35.9 µM (inactive)
- GI50 [8]: 26.1 µM (inactive)
- GI50 [9]: 30.3 µM (inactive)
- GI50 [10]: > 100 µM (inactive)
- GI50 [11]: > 100 µM (inactive)
- GI50 [12]: 52.2 µM (inactive)
- GI50 [13]: 27.9 µM (inactive)
- GI50 [14]: 7.82 µM (inactive)
- GI50 [15]: 15.9 µM (inactive)
- GI50 [16]: 84.5 µM (inactive)
- GI50 [17]: 20.2 µM (inactive)
- GI50 [18]: 14.7 µM (inactive)
- GI50 [19]: > 100 µM (inactive)
- GI50 [20]: > 100 µM (inactive)
- GI50 [21]: 16.8 µM (inactive)
- GI50 [22]: 81.8 µM (inactive)
- GI50 [23]: > 100 µM (inactive)
- GI50 [24]: 11.2 µM (inactive)
- GI50 [25]: > 100 µM (inactive)
- GI50 [26]: > 100 µM (inactive)
- GI50 [27]: 21.4 µM (inactive)
- GI50 [29]: 33.5 µM (inactive)
- GI50 [30]: 32.5 µM (inactive)
- GI50 [31]: 35.1 µM (inactive)
- GI50 [32]: 71.4 µM (inactive)
- GI50 [33]: 55.1 µM (inactive)
- GI50 [34]: 23.6 µM (inactive)
- GI50 [35]: 49.4 µM (inactive)
- GI50 [37]: 17.7 µM (inactive)
- GI50 [38]: 16.4 µM (inactive)
- GI50 [39]: 40.8 µM (inactive)
- GI50 [40]: 40 µM (inactive)
- GI50 [42]: > 100 µM (inactive)
- GI50 [43]: > 100 µM (inactive)
- GI50 [44]: 43.7 µM (inactive)
- GI50 [45]: 29 µM (inactive)
- GI50 [46]: 31.3 µM
- GI50 [47]: 29.9 µM (inactive)
- GI50 [48]: > 100 µM (inactive)
- GI50 [50]: 18.1 µM (inactive)
- GI50 [52]: 44.1 µM (inactive)
- GI50 [53]: > 100 µM (inactive)
- GI50 [54]: > 100 µM (inactive)
- GI50 [55]: 21.1 µM (inactive)
- GI50 [56]: 8.02 µM (inactive)

SMILES: N#C/C1=C(\N)CCSSSC1
- GI50 [1]: 34.5 µM (inactive)
- GI50 [2]: 32.1 µM (inactive)
- GI50 [3]: 42.3 µM (inactive)
- GI50 [58]: 33.7 µM (inactive)
- GI50 [4]: 25.8 µM (inactive)
- GI50 [59]: 45.9 µM (inactive)
- GI50 [5]: 44.8 µM (inactive)
- GI50 [6]: 41.1 µM (inactive)
- GI50 [7]: 33.4 µM (inactive)
- GI50 [8]: 31.7 µM (inactive)
- GI50 [9]: 46.3 µM (inactive)
- GI50 [10]: 30.7 µM (inactive)
- GI50 [11]: 54.8 µM (inactive)
- GI50 [12]: 33.3 µM (inactive)
- GI50 [13]: 58.3 µM (inactive)
- GI50 [14]: 69.3 µM (inactive)
- GI50 [15]: 51.6 µM (inactive)
- GI50 [16]: 45.2 µM (inactive)
- GI50 [17]: 55.3 µM (inactive)
- GI50 [18]: 44.6 µM (inactive)
- GI50 [19]: 41.7 µM (inactive)
- GI50 [20]: 29.2 µM (inactive)
- GI50 [21]: 26.1 µM (inactive)
- GI50 [22]: 51.1 µM (inactive)
- GI50 [23]: 23.6 µM (inactive)
- GI50 [24]: 48.9 µM (inactive)
- GI50 [25]: 28.9 µM (inactive)
- GI50 [26]: 31 µM (inactive)
- GI50 [27]: 33.6 µM (inactive)
- GI50 [28]: 21 µM (inactive)
- GI50 [29]: 32.1 µM (inactive)
- GI50 [30]: 33.9 µM (inactive)
- GI50 [31]: 42.9 µM (inactive)
- GI50 [33]: 31.4 µM (inactive)
- GI50 [34]: 35.8 µM (inactive)
- GI50 [35]: 36.3 µM (inactive)
- GI50 [36]: 40.2 µM (inactive)
- GI50 [37]: 32.7 µM (inactive)
- GI50 [38]: 33.1 µM (inactive)
- GI50 [39]: 35.8 µM (inactive)
- GI50 [40]: 19.6 µM (inactive)
- GI50 [41]: 37.2 µM (inactive)
- GI50 [42]: 26.9 µM (inactive)
- GI50 [43]: 53.1 µM (inactive)
- GI50 [44]: 21.7 µM (inactive)
- GI50 [45]: 43.6 µM (inactive)
- GI50 [46]: 27.9 µM
- GI50 [47]: 56.4 µM (inactive)
- GI50 [48]: 29.7 µM (inactive)
- GI50 [49]: > 100 µM (inactive)
- GI50 [50]: 42.4 µM (inactive)
- GI50 [51]: 20.9 µM (inactive)
- GI50 [52]: 28.8 µM (inactive)
- GI50 [53]: 52.5 µM (inactive)
- GI50 [54]: 58.7 µM (inactive)
- GI50 [55]: 32.1 µM (inactive)
- GI50 [56]: > 10 µM (inactive)

SMILES: CC1(C)C2C=CC1C(=O)CC2 (stereo unspecified)
- GI50 [1]: > 100 µM (inactive)
- GI50 [3]: > 100 µM (inactive)
- GI50 [4]: > 100 µM (inactive)
- GI50 [59]: > 100 µM (inactive)
- GI50 [5]: > 100 µM (inactive)
- GI50 [6]: > 100 µM (inactive)
- GI50 [7]: > 100 µM (inactive)
- GI50 [57]: > 100 µM (inactive)
- GI50 [8]: > 100 µM (inactive)
- GI50 [9]: > 100 µM (inactive)
- GI50 [11]: > 100 µM (inactive)
- GI50 [12]: > 100 µM (inactive)
- GI50 [13]: > 100 µM (inactive)
- GI50 [14]: > 100 µM (inactive)
- GI50 [15]: > 100 µM (inactive)
- GI50 [16]: > 100 µM (inactive)
- GI50 [17]: > 100 µM (inactive)
- GI50 [18]: > 100 µM (inactive)
- GI50 [19]: > 100 µM (inactive)
- GI50 [20]: > 100 µM (inactive)
- GI50 [21]: > 100 µM (inactive)
- GI50 [22]: > 100 µM (inactive)
- GI50 [23]: > 100 µM (inactive)
- GI50 [24]: > 100 µM (inactive)
- GI50 [25]: > 100 µM (inactive)
- GI50 [26]: > 100 µM (inactive)
- GI50 [27]: > 100 µM (inactive)
- GI50 [28]: > 100 µM (inactive)
- GI50 [29]: > 100 µM (inactive)
- GI50 [30]: > 100 µM (inactive)
- GI50 [31]: > 100 µM (inactive)
- GI50 [33]: > 100 µM (inactive)
- GI50 [34]: 49.9 µM (inactive)
- GI50 [36]: > 100 µM (inactive)
- GI50 [38]: > 100 µM (inactive)
- GI50 [39]: > 100 µM (inactive)
- GI50 [40]: > 100 µM (inactive)
- GI50 [41]: 15.9 µM (inactive)
- GI50 [42]: > 100 µM (inactive)
- GI50 [43]: > 100 µM (inactive)
- GI50 [44]: > 100 µM (inactive)
- GI50 [45]: > 100 µM (inactive)
- GI50 [46]: > 100 µM
- GI50 [47]: > 100 µM (inactive)
- GI50 [49]: > 100 µM (inactive)
- GI50 [50]: > 100 µM (inactive)
- GI50 [51]: > 100 µM (inactive)
- GI50 [52]: > 100 µM (inactive)
- GI50 [54]: > 100 µM (inactive)
- GI50 [55]: > 100 µM (inactive)
- GI50 [56]: > 100 µM (inactive)

Reference: ChEMBL document CHEMBL1201862, “PubChem BioAssay data set” (2004)
